What is called mortality is the percentage killed.

What all share (format): in vivo
The subject of one data set is ddy mouse (Slc:ddy). Kind of data set: Oral acute toxicity test. The arrangement: key: 0/3 means none of 3 recipient animals died; 1/3 means one out of 3 recipient animals died; 2/3 means 2 out of 3 recipient animals died; 3/3 means all 3 recipient animals died. The settings on record: oral 30 mg/kg, mortality investigated for 7 days; for Test result Female (mortality, animals died out of 3): female ddy mouse; for Test result Male (mortality, animals died out of 3): male ddy mouse. As for the experimental part:
Oral acute toxicity test was conducted according to the method described in the guideline in “Guideline for the Preparation of Test Report on the Toxicity Studies”, published by the Ministry of Agriculture, Forestry and Fisheries of Japan. Experimental animals, 3 each of male and female of 7 weeks aged ddy mouse (Slc:ddy), were obtained from SLC Japan Inc. The compounds of the present invention and the reference substances were suspended in 0.5% sodium carboxymethyl cellulose or corn oil to give a 30 (mg/kg) equivalent amount for a dosage of 10 ml per 1 kg of body weight. The suspensions were inoculated using a sonde directly into the stomach of test animals which were fasted for 3 hours before inoculation. The test animals were fasted for additional 3 hours after inoculation, and the mortality of the inoculated animal was investigated for 7 days. In this table, 0/3 means none of 3 recipient animals died, 1/3 means one out of 3 recipient animals died, 2/3 means 2 out of 3 recipient animals died, 3/3 means all 3 recipient animals died.

Data set [1] has as its system Tetranychus urticae. Kind of data set: Prevention/extermination test against Tetranychus urticae (0.8 ppm). Conditions: 312 h, 0.8 ppm active ingredient, soybean seedlings inoculated with imago, 25° C., after 13 days, read-out: prevention/extermination titer. As for the experimental part: (§1) The wettable powder prepared according to the above Preparation Example 2 was diluted with water to a concentration of 500 ppm as a concentration of active ingredient. Soybean seedlings which had previously been inoculated with the imago of Tetranychus urticae were soaked in the test solution, then air dried. The treated soybean seedlings were left at the constant temperature of 25° C. After 13 days from the treatment, the number of surviving mites was counted, and the prevention/extermination titer was calculated according to the formula 2 below.
The wettable powder prepared according to the above Preparation Example 2 was diluted with water to a concentration of 0.8 ppm as a concentration of active ingredient. The same experiment as in Test Example 2 was carried out, and the prevention/extermination titer was calculated according to the formula 2.
(§2) In this test, representative compounds having the acaricidal effect with more than 90 of prevention/extermination titer include compound No. 63, 93, 77, 81, 105, 169, 190, 196 and 208.

For data set [2], the system named is Tetranychus urticae. Kind of data set: Prevention/extermination test against Tetranychus urticae (500 ppm). Conditions: 312 h, 500 ppm active ingredient, soybean seedlings inoculated with imago, 25° C., after 13 days, read-out: prevention/extermination titer (preventive titer). As for the experimental part:
as §1, §2

The test system of a further data set is Nilaparvata lugenis. Kind of data set: Insecticidal test for Nilaparvata lugenis. Conditions: 144 h, 500 ppm active ingredient (wettable powder), 4-instar larvae on germinated rice paddy, 25° C., after 6 days, read-out: mortality rate. As for the experimental part: The wettable powder prepared according to the above Preparation Example 2 was diluted with water to a concentration of 500 ppm as a concentration of active ingredient. After soaking the germinated rice paddy in the test solution, the paddy was transferred into a 60 ml volume of plastic cup. Ten (10) heads of 4-instar larvae of Nilaparvata lugenis were inoculated on the paddy and capped, then left at the constant temperature of 25° C. After 6 days from the inoculation, the number of surviving insects was counted, and mortality rate of the insect was calculated according to the following formula 1. mortality rate (%)=[(10−number of surviving insect in the test field)/10]×100 (1)

Molecules are shown by their SMILES.

Turning to `CCCCOc1ncc(C(=O)OCCC(C)=C(F)F)c(C)n1` [Compound 105, 4,4-difluoro-3-methyl-3-butenyl 2-butoxy-4-methyl-pyrimidine-5-carboxylate], in the data set on ddy mouse (Slc:ddy), the “Test result Female (mortality, animals died out of 3)” value (“Test result Female” for short) is reported as 0/3 and the “Test result Male (mortality, animals died out of 3)” value (“Test result Male” for short) is reported as 0/3. The pest or weed control at 0.8 ppm with Tetranychus urticae [1] is above 90%.

With `CC(CCCCOC(=O)c1cc2ccccc2o1)=C(F)F` [Compound 7, 6,6-difluoro-5-methyl-5-hexenyl benzo[b]furan-2-carboxylate], the pest or weed control at 500 ppm in the data set with Tetranychus urticae [2] was above 90%. Regarding `CC(CCOC(=O)c1ccc(OC2CCCC2)nc1)=C(F)F` [Compound 81, 4,4-difluoro-3-methyl-3-butenyl 6-cyclopentyloxy-nicotinate], in the data set on ddy mouse (Slc:ddy), the “Test result Female” value is 0/3 and the “Test result Male” value is listed as 0/3. In addition, in the data set on Tetranychus urticae [1], the pest or weed control at 0.8 ppm was above 90%. In the case of `CC(CCOC(=O)c1cc(-c2ccccc2)n(C)n1)=C(F)F` [Compound 194, 4,4-difluoro-3-methyl-3-butenyl 1-methyl-5-phenyl-1H-pyrazole-3-carboxylate], the pest or weed control at 500 ppm in the data set with Tetranychus urticae [2] was above 90%.

Regarding `CC(CCCCOC(=O)c1cc2ccccc2cn1)=C(F)F` [Compound 27, 6,6-difluoro-5-methyl-5-hexenyl isoquinoline-3-carboxylate], the pest or weed control at 500 ppm with Tetranychus urticae [2] is above 90%. Regarding `CC(CCCCOC(=O)c1ccc2nsnc2c1)=C(F)F` [Compound 42, 6,6-difluoro-5-methyl-5-hexenyl benzo[1,2,5]-thiadiazole-5-carboxylate], the pest or weed control at 500 ppm with Tetranychus urticae [2] is above 90%. With `CC(CCCCOC(=O)c1n[nH]c2ccccc12)=C(F)F` [Compound 33, 6,6-difluoro-5-methyl-5-hexenyl 1H-indazole-3-carboxylate], the mortality at 500 ppm in the data set with Nilaparvata lugenis is at least 90%. The pest or weed control at 500 ppm in the data set with Tetranychus urticae [2] is above 90%. With `O=C(OCCCCC=C(F)F)c1cc2ccccc2s1` [Reference compound D, 6,6-difluoro-5-hexenyl benzo[b]thiophen-2-carboxylate, reference compound], in the data set with ddy mouse (Slc:ddy), the “Test result Female” value is 3/3 and the “Test result Male” value is 3/3. In the case of `CC(CCOC(=O)c1cnc(-c2ccccc2)s1)=C(F)F` [Compound 190, 4,4-difluoro-3-methyl-3-butenyl 2-phenylthiazole-5-carboxylate], in the data set on Tetranychus urticae [1], the pest or weed control at 0.8 ppm is above 90%. For the compound `CC(CCCCOC(=O)c1c[nH]c2ccccc12)=C(F)F` [Compound 13, 6,6-difluoro-5-methyl-5-hexenyl 1H-indole-3-carboxylate], the pest or weed control at 500 ppm with Tetranychus urticae [2] is above 90%. For the compound `CC(CCCCOC(=O)c1ccc2c(c1)ncn2CCCCC(C)=C(F)F)=C(F)F` [Compound 35, 6,6-difluoro-5-methyl-5-hexenyl 1-(6,6-difluoro-5-methyl-5-hexenyl)-1H-benzoimidazole-5-carboxylate], the pest or weed control at 500 ppm in the data set on Tetranychus urticae [2] was above 90%. With `CC(CCOC(=O)c1cnc(-c2ccccc2)nc1C)=C(F)F` [Compound 93, 4,4-difluoro-3-methyl-3-butenyl 4-methyl-2-phenyl-pyrimidine-5-carboxylate], in the data set on ddy mouse (Slc:ddy), the “Test result Female” value is given as 0/3 and the “Test result Male” value is reported as 0/3. The pest or weed control at 0.8 ppm in the data set with Tetranychus urticae [1] was above 90%. As to `CC(CCCCOC(=O)c1cnc2ccccc2n1)=C(F)F` [Compound 32, 6,6-difluoro-5-methyl-5-hexenyl quinoxaline-2-carboxylate], the mortality at 500 ppm in the data set on Nilaparvata lugenis is at least 90%. In addition, in the data set with Tetranychus urticae [2], the pest or weed control at 500 ppm was above 90%. Take `CC(CCCCOC(=O)c1c(-c2ccccc2)noc1C)=C(F)F` [Compound 12, 6,6-difluoro-5-methyl-5-hexenyl 5-methyl-3-phenyl-isoxazole-4-carboxylate]: the pest or weed control at 500 ppm with Tetranychus urticae [2] was above 90%. For the compound `CC(CCOC(=O)c1cnc(N(C)c2ccccc2)nc1C)=C(F)F` [Compound 119, 4,4-difluoro-3-methyl-3-butenyl 4-methyl-2-(N-methyl-N-phenylamino)pyrimidine-5-carboxylate], in the data set on ddy mouse (Slc:ddy), the “Test result Female” value is on record as 0/3 and the “Test result Male” value was 0/3. `Cc1nc(-c2ccccc2)ncc1C(=O)OCCC=C(F)F` [Reference compound C, 4,4-difluoro-3-butenyl 4-methyl-2-phenylpyrimidine-5-carboxylate, reference compound]: in the data set with ddy mouse (Slc:ddy), the “Test result Female” value is 3/3 and the “Test result Male” value is listed as 3/3.

As for `CC(CCOC(=O)c1cn(-c2ccccc2)nc1C)=C(F)F` [Compound 196, 4,4-difluoro-3-methyl-3-butenyl 3-methyl-1-phenyl-1H-pyrazole-4-carboxylate], in the data set with Tetranychus urticae [1], the pest or weed control at 0.8 ppm is above 90%. Consider `CC(CCCCOC(=O)c1ccc2nn(CCCCC(C)=C(F)F)nc2c1)=C(F)F` [Compound 31, 6,6-difluoro-5-methyl-5-hexenyl 2-(6,6-difluoro-5-methyl-5-hexenyl)-2H-benzotriazole-5-carboxylate], for which, in the data set on Tetranychus urticae [2], the pest or weed control at 500 ppm was above 90%. Turning to `CC(CCOC(=O)c1sc(C2CCCCC2)nc1C)=C(F)F` [Compound 169, 4,4-difluoro-3-methyl-3-butenyl 2-cyclohexyl-4-methylthiazole-5-carboxylate], in the data set with Nilaparvata lugenis, the mortality at 500 ppm was at least 90%. In addition, the pest or weed control at 0.8 ppm in the data set on Tetranychus urticae [1] is above 90%.

Turning to `CC(CCCCOC(=O)c1ccc(Cl)nc1)=C(F)F` [Compound 1, 6,6-di-fluoro-5-methyl-5-hexenyl 6-chloronicotinate], the mortality at 500 ppm in the data set on Nilaparvata lugenis is at least 90%. Moreover, in the data set on ddy mouse (Slc:ddy), the “Test result Female” value was 0/3 and the “Test result Male” value is 0/3. As for `CCN(c1ccc(C)cc1)c1nc(C)c(C(=O)OCCC(C)=C(F)F)s1` [Compound 185, 4,4-difluoro-3-methyl-3-butenyl 2-(N-ethyl-N-4-tolylamino)-4-methylthiazole-5-carboxylate], in the data set on Tetranychus urticae [2], the pest or weed control at 500 ppm was above 90%.

As to `CC(CCOC(=O)c1cc2ccccc2s1)=C(F)F` [Compound 18, 4,4-difluoro-3-methyl-3-butenyl benzo[b]thiophene-2-carboxylate], in the data set with ddy mouse (Slc:ddy), the “Test result Female” value was 0/3 and the “Test result Male” value was 0/3. Take `CC(CCCCOC(=O)c1cnnc2ccccc12)=C(F)F` [Compound 37, 6,6-difluoro-5-methyl-5-hexenyl cinnoline-4-carboxylate]: the pest or weed control at 500 ppm in the data set on Tetranychus urticae [2] was above 90%. In the case of `CC(CCCCOC(=O)c1cc2ccccc2s1)=C(F)F` [Compound 3, 6,6-difluoro-5-methyl-5-hexenyl benzo[b]thiophene-2-carboxylate], in the data set on ddy mouse (Slc:ddy), the “Test result Female” value is reported as 0/3 and the “Test result Male” value is listed as 0/3. Consider `O=C(OCCCCC=C(F)F)c1ccc(Cl)nc1` [Reference compound A, 6,6-difluoro-5-hexenyl 6-chloronicotinate, reference compound], for which, in the data set with ddy mouse (Slc:ddy), the “Test result Female” value was 3/3 and the “Test result Male” value is 3/3. Consider `CCCCCc1cc(C(=O)OCCC(C)=C(F)F)n(C)n1` [Compound 208, 4,4-difluoro-3-methyl-3-butenyl 2-methyl-5-pentyl-2H-pyrazole-3-carboxylate], for which the pest or weed control at 0.8 ppm in the data set with Tetranychus urticae [1] is above 90%. Consider `CCCCn1ncc(C(=O)OCCC(C)=C(F)F)c1C` [Compound 203, 4,4-difluoro-3-methyl-3-butenyl 1-butyl-5-methyl-1H-pyrazole-4-carboxylate], for which the pest or weed control at 500 ppm in the data set on Tetranychus urticae [2] is above 90%. Consider `CCCCOc1ncc(C(=O)OCCC=C(F)F)c(C)n1` [Reference compound B, 4,4-difluoro-3-butenyl 2-butoxy-4-methylpyrimidine-5-carboxylate, reference compound], for which, in the data set with ddy mouse (Slc:ddy), the “Test result Female” value is 3/3 and the “Test result Male” value is given as 3/3. Consider `CC(CCCCOC(=O)c1sc(-c2ccccc2)nc1C)=C(F)F` [Compound 29, 6,6-difluoro-5-methyl-5-hexenyl 4-methyl-2-phenyl-thiazole-5-carboxylate], for which, in the data set with ddy mouse (Slc:ddy), the “Test result Female” value is 0/3 and the “Test result Male” value was 0/3.

For the origin of these results see US7273878B2, “Difluoroalkene derivative, pest control agent containing the same, and intermediate therefor” (Kumiai Chemical Industry Co., Ltd., priority 2001, dated 2007).
